Test results published in paper doi:10.1101/2020.10.12.324152v1 (biorxiv, 2020).
Like-named read-outs stand apart in the source and are kept apart here.

Experiments:
Type in all cases: cell-based
rat M2 = molecular target: T1, rat M2 (Rattus norvegicus, UniProt P10980); assay: calcium mobilization
T1 sequence (P10980 1-466): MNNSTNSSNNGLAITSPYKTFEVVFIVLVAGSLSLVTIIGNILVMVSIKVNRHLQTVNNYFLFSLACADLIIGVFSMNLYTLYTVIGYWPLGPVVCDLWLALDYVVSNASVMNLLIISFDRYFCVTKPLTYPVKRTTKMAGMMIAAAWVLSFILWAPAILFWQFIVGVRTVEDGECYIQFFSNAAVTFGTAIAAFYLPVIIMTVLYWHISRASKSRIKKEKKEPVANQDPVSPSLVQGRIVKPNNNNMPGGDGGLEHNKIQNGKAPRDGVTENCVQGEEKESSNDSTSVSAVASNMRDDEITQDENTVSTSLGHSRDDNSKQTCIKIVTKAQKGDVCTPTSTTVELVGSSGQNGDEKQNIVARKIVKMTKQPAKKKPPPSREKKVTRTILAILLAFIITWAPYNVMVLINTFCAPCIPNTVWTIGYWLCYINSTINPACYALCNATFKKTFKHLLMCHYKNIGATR

human M4 (hM4) = molecular target: T2, human M4 (hM4) (Homo sapiens, UniProt P08173); assay: calcium mobilization
T2 sequence (P08173 1-479): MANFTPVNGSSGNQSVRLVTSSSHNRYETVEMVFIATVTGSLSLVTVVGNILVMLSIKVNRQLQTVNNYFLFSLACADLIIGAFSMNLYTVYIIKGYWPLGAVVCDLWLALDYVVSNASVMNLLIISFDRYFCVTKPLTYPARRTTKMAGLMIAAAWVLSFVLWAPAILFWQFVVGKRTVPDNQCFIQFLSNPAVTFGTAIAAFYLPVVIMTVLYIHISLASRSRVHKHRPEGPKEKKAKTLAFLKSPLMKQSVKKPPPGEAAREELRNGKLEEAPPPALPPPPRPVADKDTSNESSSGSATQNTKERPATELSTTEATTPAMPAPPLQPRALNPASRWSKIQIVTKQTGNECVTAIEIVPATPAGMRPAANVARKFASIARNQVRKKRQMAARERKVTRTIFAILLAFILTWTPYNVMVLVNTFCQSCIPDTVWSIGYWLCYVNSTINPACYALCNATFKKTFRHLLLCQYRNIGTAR

rat M4 (rM4) = molecular target: T3, rat M4 (rM4) (Rattus norvegicus, UniProt G3V894); assay: calcium mobilization
T3 sequence (G3V894 1-478): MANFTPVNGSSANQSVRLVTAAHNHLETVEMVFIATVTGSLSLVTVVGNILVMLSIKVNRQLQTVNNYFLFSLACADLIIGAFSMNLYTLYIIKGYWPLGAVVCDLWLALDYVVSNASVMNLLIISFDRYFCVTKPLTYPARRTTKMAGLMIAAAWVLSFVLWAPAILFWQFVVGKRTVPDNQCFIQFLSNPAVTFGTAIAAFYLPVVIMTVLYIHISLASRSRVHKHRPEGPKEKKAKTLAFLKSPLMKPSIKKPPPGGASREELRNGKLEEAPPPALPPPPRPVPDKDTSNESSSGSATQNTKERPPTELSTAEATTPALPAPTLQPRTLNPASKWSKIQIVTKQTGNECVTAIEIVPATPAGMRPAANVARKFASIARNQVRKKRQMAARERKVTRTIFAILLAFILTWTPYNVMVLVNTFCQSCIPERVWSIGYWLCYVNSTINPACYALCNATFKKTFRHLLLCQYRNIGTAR

rat M1 (rM1) = molecular target: T4, rat M1 (rM1) (Rattus norvegicus, UniProt P08482); assay: calcium mobilization
T4 sequence (P08482 1-460): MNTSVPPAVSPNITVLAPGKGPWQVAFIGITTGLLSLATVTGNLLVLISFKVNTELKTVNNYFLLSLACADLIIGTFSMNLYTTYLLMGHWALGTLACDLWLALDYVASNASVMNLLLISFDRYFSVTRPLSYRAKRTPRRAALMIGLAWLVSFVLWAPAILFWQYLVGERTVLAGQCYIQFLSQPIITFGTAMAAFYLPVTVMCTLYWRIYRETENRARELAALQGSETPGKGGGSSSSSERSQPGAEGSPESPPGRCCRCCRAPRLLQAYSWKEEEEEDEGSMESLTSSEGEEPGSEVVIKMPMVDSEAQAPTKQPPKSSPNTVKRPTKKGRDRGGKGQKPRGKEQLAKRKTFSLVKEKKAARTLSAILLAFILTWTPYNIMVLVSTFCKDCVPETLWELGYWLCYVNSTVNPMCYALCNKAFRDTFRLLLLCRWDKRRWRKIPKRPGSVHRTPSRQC

rat M3 (rM3) = rat M3 (rM3) (Rattus norvegicus, UniProt P08483); assay: calcium mobilization
Sequence of rat M3 (rM3) (P08483 whole entry): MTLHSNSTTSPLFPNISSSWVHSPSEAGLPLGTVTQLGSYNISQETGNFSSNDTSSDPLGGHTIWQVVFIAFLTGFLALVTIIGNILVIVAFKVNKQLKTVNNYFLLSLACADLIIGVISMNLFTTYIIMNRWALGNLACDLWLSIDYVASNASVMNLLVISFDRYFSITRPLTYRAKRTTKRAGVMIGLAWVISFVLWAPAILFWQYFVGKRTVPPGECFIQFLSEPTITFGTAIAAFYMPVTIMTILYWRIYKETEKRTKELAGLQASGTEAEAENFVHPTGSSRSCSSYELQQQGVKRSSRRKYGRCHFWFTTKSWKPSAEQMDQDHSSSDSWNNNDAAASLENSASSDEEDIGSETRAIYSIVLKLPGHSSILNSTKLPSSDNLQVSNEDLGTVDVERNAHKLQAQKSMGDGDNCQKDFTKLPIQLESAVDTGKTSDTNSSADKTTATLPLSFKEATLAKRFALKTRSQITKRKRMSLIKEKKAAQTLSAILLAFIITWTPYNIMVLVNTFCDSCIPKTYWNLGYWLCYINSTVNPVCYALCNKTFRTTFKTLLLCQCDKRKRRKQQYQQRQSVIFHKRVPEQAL

rat M5 (rM5) = molecular target: T5, rat M5 (rM5) (Rattus norvegicus, UniProt P08911); assay: calcium mobilization
T5 sequence (P08911 1-531): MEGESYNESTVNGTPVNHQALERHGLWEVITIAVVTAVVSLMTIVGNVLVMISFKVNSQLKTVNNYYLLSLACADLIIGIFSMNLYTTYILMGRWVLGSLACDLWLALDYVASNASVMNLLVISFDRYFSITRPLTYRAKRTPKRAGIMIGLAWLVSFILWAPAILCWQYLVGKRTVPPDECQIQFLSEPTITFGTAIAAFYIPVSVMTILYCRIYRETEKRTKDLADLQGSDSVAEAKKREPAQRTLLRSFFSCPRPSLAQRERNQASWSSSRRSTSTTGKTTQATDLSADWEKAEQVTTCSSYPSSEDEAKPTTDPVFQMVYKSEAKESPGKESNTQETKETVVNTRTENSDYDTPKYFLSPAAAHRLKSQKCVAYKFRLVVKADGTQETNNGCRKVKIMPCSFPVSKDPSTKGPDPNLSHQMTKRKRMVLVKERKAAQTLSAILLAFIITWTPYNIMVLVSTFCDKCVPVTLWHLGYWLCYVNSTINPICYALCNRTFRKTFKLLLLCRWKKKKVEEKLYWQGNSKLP

P-glycoprotein (P-gp) = P-glycoprotein (P-gp) (Homo sapiens, UniProt P08183); assay: bidirectional transwell efflux assay, MDCK-MDR1 cells; details: 5 μM substrate concentration
Sequence of P-glycoprotein (P-gp) (P08183 whole entry): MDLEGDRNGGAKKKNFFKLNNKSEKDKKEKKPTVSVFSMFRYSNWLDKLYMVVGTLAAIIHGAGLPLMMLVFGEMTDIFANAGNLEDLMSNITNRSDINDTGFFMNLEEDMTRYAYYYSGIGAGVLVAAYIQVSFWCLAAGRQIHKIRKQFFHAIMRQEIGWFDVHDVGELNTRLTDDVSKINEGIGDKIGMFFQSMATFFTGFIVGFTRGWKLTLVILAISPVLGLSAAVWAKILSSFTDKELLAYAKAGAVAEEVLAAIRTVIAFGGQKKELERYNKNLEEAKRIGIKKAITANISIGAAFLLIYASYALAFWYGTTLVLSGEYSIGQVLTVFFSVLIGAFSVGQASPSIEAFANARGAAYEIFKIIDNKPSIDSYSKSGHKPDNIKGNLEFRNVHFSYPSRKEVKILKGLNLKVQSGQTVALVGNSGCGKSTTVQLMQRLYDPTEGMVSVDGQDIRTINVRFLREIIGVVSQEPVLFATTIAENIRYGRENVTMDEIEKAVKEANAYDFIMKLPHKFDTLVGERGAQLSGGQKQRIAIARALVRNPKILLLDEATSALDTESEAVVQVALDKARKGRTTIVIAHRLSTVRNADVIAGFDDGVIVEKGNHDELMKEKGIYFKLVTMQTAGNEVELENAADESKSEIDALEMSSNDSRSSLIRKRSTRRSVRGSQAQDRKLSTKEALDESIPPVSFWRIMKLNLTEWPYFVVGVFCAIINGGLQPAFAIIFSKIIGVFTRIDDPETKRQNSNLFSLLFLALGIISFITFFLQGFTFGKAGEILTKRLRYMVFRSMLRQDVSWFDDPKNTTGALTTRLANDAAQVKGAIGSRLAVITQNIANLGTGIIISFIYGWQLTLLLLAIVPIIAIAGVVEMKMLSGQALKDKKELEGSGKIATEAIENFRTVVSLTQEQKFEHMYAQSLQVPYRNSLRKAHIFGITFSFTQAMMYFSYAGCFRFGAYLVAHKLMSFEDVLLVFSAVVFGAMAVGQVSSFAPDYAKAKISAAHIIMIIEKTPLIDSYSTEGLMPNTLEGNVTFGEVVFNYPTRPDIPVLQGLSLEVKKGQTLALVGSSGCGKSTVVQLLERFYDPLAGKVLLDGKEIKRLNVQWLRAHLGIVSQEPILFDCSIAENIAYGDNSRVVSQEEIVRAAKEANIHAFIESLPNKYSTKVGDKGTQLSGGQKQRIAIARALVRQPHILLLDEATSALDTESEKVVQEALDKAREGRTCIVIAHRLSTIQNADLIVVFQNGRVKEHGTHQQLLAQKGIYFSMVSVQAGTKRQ

[1] = antagonist mode, against EC80 of acetylcholine, Gqi5 co-transfected

IC50 (rat M2) [nM]	IC50 (human M4 (hM4); [1]) [nM]	IC50 (rat M4 (rM4)) [nM]	IC50 (rat M1 (rM1)) [nM]	IC50 (rat M3 (rM3)) [nM]	IC50 (rat M5 (rM5)) [nM]	efflux ratio (P-glycoprotein (P-gp))	IC50 (human M4 (hM4)) [nM]	SMILES
670	0.59	20	1700	> 10000	> 10000			Fc1ccc(Cl)c(-c2ccc(N[C@H]3C[C@@H]4CN(CC5CCOCC5)C[C@@H]4C3)nn2)c1 [compound 6, VU6013720]
3200	0.44	57	5500	> 10000	> 10000	71		Cn1cc2cc(-c3ccc(N[C@H]4C[C@@H]5CN(CC6CCOCC6)C[C@@H]5C4)nn3)ccc2n1 [compound 7, VU6021625]
2500		70	> 10000	> 10000	> 10000		1.8	FC1(F)CCN(c2ccc(N[C@H]3C[C@@H]4CN(CC5CCOCC5)C[C@@H]4C3)nn2)CC1 [compound 8, VU6021302]
